Assay results reported in patent US7595300B2, “7-quinolyl ketolide antibacterial agents” (priority 2005, dated 2009).
≈ marks a conversion by molar mass, not a printed value. Like-named read-outs stand apart in the source and are kept apart here.

What was measured:
Streptococcus pneumoniae = assay: MIC, NCCLS broth microdilution, respiratory pathogens; format: cell-based; details: S. pneumoniae
Protocol: (§1) Minimum inhibitory concentrations (“MICs”) were determined by the NCCLS broth microdilution procedure for susceptibility testing for bacteria that grow aerobically (National Committee for Clinical Laboratory Standards, 1997. Methods for dilution antimicrobial susceptibility tests for bacteria that grow aerobically, 4th ed. Approved standard. NCCLS Document M7-A4. National Committee for Clinical Laboratory Standards, Villanova, Pa.). Stock solutions were prepared on the day of the test and appropriate aliquots were added to cation adjusted Mueller-Hinton broth (CAMHB, DIFCO) or Haemophilus test media. Two-fold serial dilutions were prepared and added to wells in microtiter plates. Final test concentrations ranged from 8 to 0.004 ug/ml. Broth cultures of bacteria inoculated from growth on overnight plates for all test bacteria except Streptococcus pneumoniae and Haemophilus influenzae were incubated at 35° C. and then adjusted to the Kirby Bauer standard and diluted in CAMHB to achieve a final inoculum concentration of approximately 5×10^5 CFU/ml. Inocula for S. pneumoniae and H. influenzae were prepared by directly suspending colonies from an overnight plate, adjusting the turbidity and diluting as above. S. pneumoniae media was supplemented with 3% lysed horse blood. All plates were incubated in ambient air at 35° C. for 20-24 h for S. pneumoniae and Haemophilus influenzae and 16-20 h for all other bacteria.

M. catarrhalis = assay: as above; format: cell-based; details: Moraxella catarrhalis
Protocol: as §1

Haemophilus influenzae = assay: as above; format: cell-based; details: H. influenzae
Protocol: as §1

S. pyogenes = assay: as above; format: cell-based; details: Streptococcus pyogenes
Protocol: as §1

male beagle dogs = assay: Cardiovascular safety in telemetered dogs, intravenous infusion; format: in vivo, dog
Description: Four male beagle dogs, obtained from Marshall Farms USA, Inc. (North Rose, N.Y.), were surgically instrumented with telemetry transducers (Data Sciences International, type RL11M2-D70-PCT) to assess arterial blood pressure (ABP) and lead II electrocardiogram (ECG) parameters.
The dosing route was an intravenous infusion jugular vein access). The infusion was accomplished using a CADD Prizm® ambulatory infusion pump attached to a jacket worn by the dog. The dose duration for the intravenous infusion was 30 min for all doses administered, except the last dose (30 mg/kg) where the infusion period was extended to 45 min to accommodate the larger dose volume required for this dose. The vehicle dose and diluent for the test article was 0.05-M sodium citrate in sterile water for injection.
There was one treatment group of four non-naïve dogs and the study was comprised of both pharmacokinetic and telemetry phases, as summarized in the dose administration table for compound (III) (Table 16) below. At least one week was given between dosings to allow clearance of the drug.
For the telemetry phase of the study, collection of hemodynamic and lead II ECG data commenced approximately 30 min prior to dosing and ended approximately 6 h post-dose. Systolic blood pressure (SBP), diastolic blood pressure (DBP), HR, and lead II ECG variables (PR interval, QRS duration, RR interval, and QT interval) were acquired continuously from each animal during each dose day recording session. The QT interval was corrected for variations in HR using the Fridericia's QTc interval (QTcF).
Data acquired following treatment with vehicle or compound (III) were extracted at −10, −5, 0, 10, 20, 30, 35, 45, 60, 90, 150, 270, and 390 min relative to the start dose time. For all blood pressure and ECG parameters, data following treatment with compound (III) were compared to the time-matched vehicle dose data. Statistical comparisons were made using a one-way ANOVA for repeated measures, followed by the Dunnett's post-hoc test when statistical significance was detected with the ANOVA. Changes were considered statistically significant when p<0.05.
A complete visual scan of the ECG waveforms from the vehicle, 11 mg/kg dose, and 15 mg/kg dose of compound (III) was conducted. All waveforms were examined for gross changes in waveform morphology and arrhythmogenesis.

human hepG2 hepatocytes = assay: In vitro hepatotoxicity, resazurin and Nile Red staining; format: cell-based; details: 100 μM
Protocol: In one experiment, hepatotoxicity was estimated by overnight incubation of compounds at 3, 10, 30, 100, or 300 μM with cultured rat or human hepG2 hepatocytes, followed by staining of the cells with resazurin to measure viability or with Nile Red to measure steatosis. The minimal drug concentration at which changes in dye binding were observed was noted as the minimal effective concentration. The compound of formula (VIII) wherein Z=3-quinolyl affected […] and steatosis in human HepG2 hepatocytes at 30 μM.

anesthetized guinea pigs = assay: Cardiovascular safety, QTc interval in anesthetized guinea pigs, i.v. bolus; format: in vivo, guinea pig; details: for QTc prolongation (% above vehicle): anesthetized guinea pig, incremental i.v. bolus doses 0.47 to 15 mg/kg
Protocol: (§2) Total doses of drug (0.47, 0.94, 1.88, 3.75, 7.5, and 15 mg/kg) or equivalent volumes of vehicle were administered incrementally as an i.v. bolus to groups of 6 anesthetized rats or guinea pigs at 0, 15, 30, 45, 60, and 75 minutes. Hemodynamic parameters including mean arterial pressure (MAP) and heart rate (HR), and ECG parameters (QT and PR intervals and QRS duration) were recorded. For the rat, injection of vehicle gave a 16% increase in QT interval over baseline. For the guinea pig, injection of vehicle gave a 3% increase in QT interval over baseline.

[1] = system: Streptococcus pneumoniae ATCC 6303; assay: rat lower respiratory tract infection (lung pneumonia) model; format: in vivo; details: for Log CFU/g (avg, n = 8): rat lungs, 12 hours after the last dose
Protocol: The in vivo efficacy of compounds (II) and (III) were evaluated in a rat lower respiratory tract infection model. Groups of 8 rats were infected intratracheally with 0.5 mL containing 10^6 CFUs of Streptococcus pneumoniae ATCC 6303 in 5% hog gastric mucin. Compounds dissolved in ethanol were administered by oral gavage daily over 3 days starting 18 hours post-inoculation. Lungs were aseptically removed from survivors 12 hours after the last dose and examined for visible signs of infection, then homogenized in sterile PBS and plated for determination of CFUs by log plating on Columbia agar-nalidixic acid plates.

[2] = Pharmacokinetics in the mouse, plasma and lung tissue; format: in vivo; details: oral gavage 10 mg/kg; for Lung AUC / Lung Cmax: mouse lung tissue
Protocol: The pharmacokinetics of compounds of formula (VIII) and compounds of formula (II) and (III) were measured in the mouse. Compounds were administered either intravenously (i.v.) at 1 mg/kg, or per oral gavage (p.o.) at 10 mg/kg. Plasma samples were taken and analyzed by LC/MS-MS. For lung tissue pharmacokinetics, lungs were removed and homogenized, followed by analyzis by LC/MS-MS.

anesthetized rats = assay: Cardiovascular safety, QT interval in anesthetized rats, i.v. bolus; format: in vivo, rat; details: for QT prolongation (% above vehicle): anesthetized rat, incremental i.v. bolus doses 0.47 to 15 mg/kg
Protocol: as §2

dog = assay: Safety of intravenous dosing in dog models; details: intravenous 9 mg/kg
[3] = genotype sensitive, read-out: MIC50
[4] = genotype sensitive, read-out: MIC90

## CC1CC(N(C)C)C(O)C(O[C@@H]2[C@@H](C)C(=O)[C@@H](C)C(=O)O[C@H](CCF)[C@@]3(C)OC(=O)N[C@@H]3[C@@H](C)C(=O)[C@H](C)C[C@@]2(C)OC/C=C/c2ccc3cccnc3c2)O1 (stereo partly shown) [Compound (II), 6-O-(1-(7-quinolyl)-3-propenyl)-11-amino-11-deoxy-3-(descladinosyl)-3-oxo-15-fluoroerythromycin A-11,12-cyclic carbamate]
Streptococcus pneumoniae; 20 h, genotype ermB + mef
  MIC50: 1 µg/mL
Streptococcus pneumoniae; genotype ermB
  MIC50: 0.12 µg/mL (≈ 0.153 µM)
  MIC90: 0.12 µg/mL (≈ 0.153 µM)
Streptococcus pneumoniae; genotype ermB + mef
  MIC90: 2 µg/mL
Streptococcus pneumoniae; genotype mef, read-out: MIC50
  MIC50: 0.25 µg/mL (≈ 0.319 µM)
Streptococcus pneumoniae; genotype mef, read-out: MIC90
  MIC90: 0.25 µg/mL (≈ 0.319 µM)
Streptococcus pneumoniae; [3]
  MIC50: 0.03 µg/mL (≈ 0.0383 µM)
Streptococcus pneumoniae; [4]
  MIC90: 0.03 µg/mL (≈ 0.0383 µM)
M. catarrhalis
  MIC50: 0.12 µg/mL (≈ 0.153 µM)
  MIC90: 0.12 µg/mL (≈ 0.153 µM)
Haemophilus influenzae; resistant
  MIC50: > 8 µg/mL
  MIC90: > 8 µg/mL
Haemophilus influenzae; sensitive
  MIC50: 2 µg/mL (≈ 2.55 µM)
  MIC90: 4 µg/mL (≈ 5.1 µM)
S. pyogenes; genotype ermB
  MIC50: 0.12 µg/mL (≈ 0.153 µM)
  MIC90: 1 µg/mL (≈ 1.28 µM)
S. pyogenes; genotype mef, read-out: MIC50
  MIC50: 0.12 µg/mL (≈ 0.153 µM)
S. pyogenes; genotype mef, read-out: MIC90
  MIC90: 0.25 µg/mL (≈ 0.319 µM)
S. pyogenes; [3]
  MIC50: 0.03 µg/mL (≈ 0.0383 µM)
S. pyogenes; [4]
  MIC90: 0.03 µg/mL (≈ 0.0383 µM)
Male beagle dogs; male beagle dogs, intravenous infusion 15 mg/kg over 30 minutes
  heart rate-corrected QT interval (QTc), FIG. 5: No significant increase in QTc
Male beagle dogs; telemetered dogs, intravenous infusion up to 15 mg/kg
  effects on cardiac parameters, including QT interval: no effects
Human hepG2 hepatocytes
  effects on metabolic stability and steatosis: No effects
Anesthetized guinea pigs
  QTc prolongation (% above vehicle): 1 % above vehicle
Anesthetized guinea pigs; guinea pig, cumulative doses up to 30 mg/kg, relative to vehicle controls
  effect on the QTc interval in the anesthetized guinea pig: no statistically significant effects
[1]; 0.5 mg/kg oral gavage daily over 3 days
  Log CFU/g (avg, n = 8): 4.8 Log CFU/g
[1]; 2.5 mg/kg oral gavage daily over 3 days
  Log CFU/g (avg, n = 8): 4.3 Log CFU/g
[1]; rat, 0.5 mg/kg oral gavage daily over 3 days
  % survivors: 78%
[1]; rat, 2.5 mg/kg oral gavage daily over 3 days
  % survivors: 88%
[1]; rat, oral gavage daily over 3 days
  reducing the bacterial load in the rat lungs and increasing survival relative to control animals: efficacious
[2]
  Lung AUC: 1.42 ug/mL-h
  Lung Cmax: 0.26 µg/mL
[2]; mouse plasma
  AUC: 890 ng·h/mL
  Cmax: 260 ng/mL
Anesthetized rats
  QT prolongation (% above vehicle): −4 % above vehicle
Anesthetized rats; rat
  effect on the QT interval in the rat: did not prolong the QT interval

## CC1CC(N(C)C)C(O)C(O[C@@H]2[C@@H](C)C(=O)[C@](C)(F)C(=O)O[C@H](CCF)[C@@]3(C)OC(=O)N[C@@H]3[C@@H](C)C(=O)[C@H](C)C[C@@]2(C)OC/C=C/c2ccc3nccnc3c2)O1 (stereo partly shown) [H]
dog
  toxicity, severe clinical effects upon intravenous dosing: extremely toxic
Anesthetized guinea pigs
  QTc prolongation (% above vehicle): 4 % above vehicle
[2]
  Lung AUC: 11.0 ug/mL-h
  Lung Cmax: 3.0 µg/mL
[2]; mouse plasma
  Plasma AUC: 2.1 ug/mL-h
  Plasma Cmax: 0.67 µg/mL
Anesthetized rats
  QT prolongation (% above vehicle): 15 % above vehicle
